Results reported in US12643867B2, “Compositions and uses thereof” (University of Virginia Patent Foundation, priority 2017, dated 2026).

Columns and labels:
[1] = molecular target: T1, PLK1 (Serine/threonine-protein kinase PLK1) (Homo sapiens, UniProt P53350); assay: SILAC LC-MS ATP acyl phosphate probe competition, native kinases in HEK293T; assay type: binding; details: site Lys1; ATP 1 mM; Ketanserin, Ritanserin 100 μM; RF001 1 mM
T1 construct: Native kinases; endogenous in cells; host or cells: HEK293T soluble proteome
T1 sequence (P53350 whole entry): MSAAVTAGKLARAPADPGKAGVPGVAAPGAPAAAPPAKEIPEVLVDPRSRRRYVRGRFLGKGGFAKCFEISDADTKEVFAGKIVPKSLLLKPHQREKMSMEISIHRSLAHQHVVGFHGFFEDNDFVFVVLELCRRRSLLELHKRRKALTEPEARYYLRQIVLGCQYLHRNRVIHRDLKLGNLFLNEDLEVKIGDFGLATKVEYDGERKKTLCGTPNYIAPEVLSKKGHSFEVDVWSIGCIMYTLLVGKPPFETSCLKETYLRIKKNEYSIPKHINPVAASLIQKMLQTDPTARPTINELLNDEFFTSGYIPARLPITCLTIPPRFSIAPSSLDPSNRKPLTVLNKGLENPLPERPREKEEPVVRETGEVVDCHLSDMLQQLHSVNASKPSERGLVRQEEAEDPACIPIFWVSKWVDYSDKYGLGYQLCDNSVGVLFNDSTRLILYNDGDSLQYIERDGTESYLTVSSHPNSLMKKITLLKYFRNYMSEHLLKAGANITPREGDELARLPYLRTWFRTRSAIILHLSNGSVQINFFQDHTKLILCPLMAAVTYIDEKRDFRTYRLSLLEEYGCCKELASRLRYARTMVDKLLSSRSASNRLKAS
Protocol: Proteomes were diluted to 2 mg/ml in kinase buffer. The light and heavy proteomes (0.5 mg, 250 μL total reaction volume) were pre-treated with vehicle or compound, respectively (5 μL, DMSO (light) or 50× stock in DMSO (heavy)), mixed gently, and incubated at 25° C. for 30 min. […] After incubation, matched light and heavy proteomes were transferred and mixed in a 1:1 ratio in a two-dram vial containing 4:1:3 MeOH/CHCl3/H2O (2 mL MeOH, 500 AL CHCl3, 1.5 mL H2O) for extraction of proteins to remove excess probe, quickly vortexed, and centrifuged at 1,400×g for 3 min to pellet protein. Organic and aqueous layers were removed using a Pasteur pipette, and the protein pellet was transferred to a screw-top tube in 600 μL MeOH. A second extraction was performed by adding CHCl3 (150 μL) and H2O (600 μL) to each sample, vortexed, and centrifuged at 1,400×g for 3 min to pellet protein. Organic and aqueous layers were removed by pipetting. MeOH added to pellet (600 μL) and pellets were re-suspended by sonication (3×1 sec pulse, 20% amplitude) for a final extraction. Samples were then centrifuged at 17,000×g for 5 min to pellet protein and MeOH was removed by pipetting. […] To desalt the samples, each was transferred to a two-dram glass vial, and to the vial 4:1:2 MeOH/CHCl3/H2O (2 mL MeOH, 500 AL CHCl3, 1 mL H2O) was added. The vials were vortexed quickly, spun at 1.400×g for 3 min to pellet protein, and aqueous and organic layers were removed using a Pasteur pipette. The resulting protein pellet was transferred to a screw-top tube in 600 μL MeOH, and then CHCl3 (150 μL) and HO (600 μL) were added to extract protein a second time. The samples were vortexed quickly, centrifuged at 1,400×g to pellet protein, and the aqueous and organic layers were removed by pipetting. Resulting protein pellet was suspended in MeOH (600 μL) via sonication (3×1 sec pulse, 20% amplitude), centrifuged at 17,000×g for 5 min to pellet protein, and MeOH removed by pipetting. […]

[2] = molecular target: Alpha (DGK alpha; only in reference sheet cells) (Rattus norvegicus, UniProt P51556); assay: DGK isoform % Activity screen; assay type: biochemical; details: for activity at 100 µM: read-out: 100 uM % Activity (section without isoform head; Alpha)
Sequence of Alpha (DGK alpha; only in reference sheet cells) (P51556 whole entry, canonical isoform): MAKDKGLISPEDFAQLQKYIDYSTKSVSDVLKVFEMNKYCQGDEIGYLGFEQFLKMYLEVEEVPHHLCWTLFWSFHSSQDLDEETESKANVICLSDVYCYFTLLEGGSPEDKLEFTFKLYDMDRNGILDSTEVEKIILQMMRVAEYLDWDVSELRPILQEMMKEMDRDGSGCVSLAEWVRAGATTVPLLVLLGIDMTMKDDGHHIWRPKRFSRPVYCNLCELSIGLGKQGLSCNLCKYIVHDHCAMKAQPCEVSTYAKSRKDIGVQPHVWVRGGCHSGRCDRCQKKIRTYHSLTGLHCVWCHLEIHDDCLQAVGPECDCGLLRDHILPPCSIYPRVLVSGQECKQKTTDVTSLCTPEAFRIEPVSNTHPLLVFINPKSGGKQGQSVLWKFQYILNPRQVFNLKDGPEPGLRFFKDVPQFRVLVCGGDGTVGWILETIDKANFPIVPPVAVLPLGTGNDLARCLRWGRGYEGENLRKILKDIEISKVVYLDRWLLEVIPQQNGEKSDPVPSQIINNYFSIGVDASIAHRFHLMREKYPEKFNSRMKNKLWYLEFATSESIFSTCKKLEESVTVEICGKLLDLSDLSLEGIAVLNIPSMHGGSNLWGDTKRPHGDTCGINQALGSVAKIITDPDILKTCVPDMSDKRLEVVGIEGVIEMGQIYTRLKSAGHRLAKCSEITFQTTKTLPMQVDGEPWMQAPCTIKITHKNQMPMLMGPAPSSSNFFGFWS

[3] = molecular target: T2, DGKA (Diacylglycerol kinase alpha) (Rattus norvegicus, UniProt P51556); assay: SILAC LC-MS ATP acyl phosphate probe competition, recombinant DGK-HEK293T lysates; assay type: binding; details: ATP 1 mM, Ketanserin, Ritanserin 100 μM, RF001 1 mM; for SILAC ratio, DGKA C1 probe-modified peptide: site C1 (K237); for SILAC ratio, DGKA DAGKa probe-modified peptide: site DAGKa (K539); for SILAC ratio, DGKA DAGKc probe-modified peptide: site DAGKc (K377)
T2 construct: expressed in transfected cells; host or cells: HEK293T (SILAC HEK293T for LC-MS)
T2 sequence (P51556 whole entry): as the sequence (P51556 whole entry, canonical isoform) above
Protocol: All other vectors were gifted to Dr. Kevin Lynch (University of Virginia, School of Medicine) by Dr. Kaoru Goto (Yamagata University, School of Medicine) and Dr. Fumio Sakane (Chiba University) and were kindly shared with us: pcDNA3-FLAG-DGKA (rat), pCMV-Tag2B-FLAG-DGKQ (human), pcDNA3-DGKE-3×Flag (human), and pCMV-SPORT6-HA-DGKZ (human). HEK293T cells were plated at a concentration of 400,000 cells in complete DMEM and grown to 50-60% confluency. A polyethyleneimine (PEI) stock solution was prepared (1 mg/mL, pH 7.4) and filter sterilized. Serum-free DMEM (600 μL) was mixed gently with 2.6 μg DNA and 20 μL of sterile PEI (1 mg/mL, pH 7.4) in a sterile microfuge tube. Mixtures were incubated for 30 min at 25° C. The mixture was then added drop-wise to each 10 cm^2 plate, rocked back and forth to mix, and placed back in the incubator. Cell pellets were harvested after two full days of growth, snap-frozen in liquid N2, and stored at −80° C. until use. Recombinant proteins were produced by transient transfection in SILAC HEK293T cells using the procedure described above, except that cells were plated at a concentration of 1×10^6 cells per 10 cm^2 plate and grown to ˜70% confluency prior to introducing transfection mixture.
Proteomes were diluted to 2 mg/ml in kinase buffer. The light and heavy proteomes (0.5 mg, 250 μL total reaction volume) were pre-treated with vehicle or compound, respectively (5 μL, DMSO (light) or 50× stock in DMSO (heavy)), mixed gently, and incubated at 25° C. for 30 min. […] After incubation, matched light and heavy proteomes were transferred and mixed in a 1:1 ratio in a two-dram vial containing 4:1:3 MeOH/CHCl3/H2O (2 mL MeOH, 500 AL CHCl3, 1.5 mL H2O) for extraction of proteins to remove excess probe, quickly vortexed, and centrifuged at 1,400×g for 3 min to pellet protein. Organic and aqueous layers were removed using a Pasteur pipette, and the protein pellet was transferred to a screw-top tube in 600 μL MeOH. A second extraction was performed by adding CHCl3 (150 μL) and H2O (600 μL) to each sample, vortexed, and centrifuged at 1,400×g for 3 min to pellet protein. Organic and aqueous layers were removed by pipetting. MeOH added to pellet (600 μL) and pellets were re-suspended by sonication (3×1 sec pulse, 20% amplitude) for a final extraction. Samples were then centrifuged at 17,000×g for 5 min to pellet protein and MeOH was removed by pipetting. […] To desalt the samples, each was transferred to a two-dram glass vial, and to the vial 4:1:2 MeOH/CHCl3/H2O (2 mL MeOH, 500 AL CHCl3, 1 mL H2O) was added. The vials were vortexed quickly, spun at 1.400×g for 3 min to pellet protein, and aqueous and organic layers were removed using a Pasteur pipette. The resulting protein pellet was transferred to a screw-top tube in 600 μL MeOH, and then CHCl3 (150 μL) and HO (600 μL) were added to extract protein a second time. The samples were vortexed quickly, centrifuged at 1,400×g to pellet protein, and the aqueous and organic layers were removed by pipetting. Resulting protein pellet was suspended in MeOH (600 μL) via sonication (3×1 sec pulse, 20% amplitude), centrifuged at 17,000×g for 5 min to pellet protein, and MeOH removed by pipetting. Protein pellets were then re-suspended in 25 mM ammonium bicarbonate (500 μL) and digested with 7.5 μg Trypsin/Lys-C(Promega, 15 μL, 0.5 μg/μL) for 3 h at 37° C. Avidin-agarose beads (Thermo Scientific Pierce, 100 AL aliquot per sample) were washed three times by adding 10 mL DPBS, centrifuged at 1,400×g for 1 min, and decanting. This wash step was repeated for a total of 3 times. Digested protein samples were mixed with washed avidin beads (100 μL) and brought to a volume of 5.5 mL with DPBS in a 15 mL conical and rotated for 1 h to enrich samples for the covalent desthiobiotin modification. The beads were washed with 25 mM ammonium bicarbonate (3× with 10 mL, centrifuge at 1,400×g for 3 min, decant) and then H2O (3× with 10 mL, centrifuge at 1,400×g for 3 min, decant).

Zeta (DGK zeta) = Zeta (DGK zeta) (Homo sapiens, UniProt Q13574); assay: DGK isoform % Activity screen; assay type: biochemical
Sequence of Zeta (DGK zeta) (Q13574 whole entry, canonical isoform): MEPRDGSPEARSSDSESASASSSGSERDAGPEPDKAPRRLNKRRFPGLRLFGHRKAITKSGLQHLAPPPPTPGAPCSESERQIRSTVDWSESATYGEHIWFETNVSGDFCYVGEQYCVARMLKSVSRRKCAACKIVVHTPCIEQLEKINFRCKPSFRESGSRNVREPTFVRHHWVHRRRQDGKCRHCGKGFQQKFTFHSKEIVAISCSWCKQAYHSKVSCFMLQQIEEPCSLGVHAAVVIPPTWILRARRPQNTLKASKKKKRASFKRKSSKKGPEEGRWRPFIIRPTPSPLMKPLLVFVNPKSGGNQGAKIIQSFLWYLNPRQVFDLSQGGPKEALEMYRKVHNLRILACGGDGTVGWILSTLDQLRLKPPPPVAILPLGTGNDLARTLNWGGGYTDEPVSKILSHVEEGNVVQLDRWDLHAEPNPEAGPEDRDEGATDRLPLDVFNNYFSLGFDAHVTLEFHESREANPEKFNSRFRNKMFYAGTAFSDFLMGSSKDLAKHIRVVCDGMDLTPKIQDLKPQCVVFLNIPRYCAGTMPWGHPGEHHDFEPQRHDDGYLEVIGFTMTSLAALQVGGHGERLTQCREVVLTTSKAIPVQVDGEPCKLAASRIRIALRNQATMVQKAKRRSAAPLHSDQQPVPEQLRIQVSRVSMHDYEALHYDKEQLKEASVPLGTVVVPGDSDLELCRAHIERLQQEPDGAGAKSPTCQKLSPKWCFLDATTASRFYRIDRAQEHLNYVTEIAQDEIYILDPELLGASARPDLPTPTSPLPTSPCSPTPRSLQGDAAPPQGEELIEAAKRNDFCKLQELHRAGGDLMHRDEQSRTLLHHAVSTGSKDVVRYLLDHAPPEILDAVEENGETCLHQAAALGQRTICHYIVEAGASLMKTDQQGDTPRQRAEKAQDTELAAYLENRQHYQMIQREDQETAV

SILAC ratio, PLK1 probe-modified peptide [1]	activity at 100 µM [2]	SILAC ratio, DGKA C1 probe-modified peptide [3]	SILAC ratio, DGKA DAGKa probe-modified peptide [3]	SILAC ratio, DGKA DAGKc probe-modified peptide [3]	activity at 100 µM (Zeta (DGK zeta))	activity at 1000 µM ([2]; read-out: 1 mM % Activity (section without isoform head; Alpha))	activity at 1000 µM (Zeta (DGK zeta); read-out: 1 mM % Activity, Zeta)	SMILES
1.0	99%	1.4	1.3	1.2	90%			O=C(c1ccc(F)cc1)C1CCN(CCn2c(=O)[nH]c3ccccc3c2=O)CC1 [Ketanserin]
0.9	75%	12.6	9.1	1.7	80%	0%	0%	Fc1ccc(C(=C2CCNCC2)c2ccc(F)cc2)cc1 [RF001, 4-(Bis(4-fluorophenyl)methylene) piperidine]

SMILES	SILAC ratio, PLK1 probe-modified peptide [1]	activity at 100 µM [2]	SILAC ratio, DGKA C1 probe-modified peptide [3]	SILAC ratio, DGKA DAGKa probe-modified peptide [3]	SILAC ratio, DGKA DAGKc probe-modified peptide [3]	activity at 100 µM (Zeta (DGK zeta))	activity at 1000 µM ([2]; read-out: 1 mM % Activity (section without isoform head; Alpha))	activity at 1000 µM (Zeta (DGK zeta); read-out: 1 mM % Activity, Zeta)
Cc1nc2sccn2c(=O)c1CCN1CCC(=C(c2ccc(F)cc2)c2ccc(F)cc2)CC1 [Ritanserin]	1.5	52%	7.0	7.0	2.0	86%		
